These results are taken from ChEMBL document CHEMBL4014349, “Application of Structure-Based Design and Parallel Chemistry to Identify a Potent, Selective, and Brain Penetrant Phosphodiesterase 2A Inhibitor” (J Med Chem, 2017).

What all share (type): ADME, organism-based
Series [1] in a line: Ratio of unbound concentration in rat brain to plasma at 3 mg/kg, sc after 30 mins. The settings on record: brain and plasma, read-out: K(p,uu,brain).
Series [2] can be described thus: Drug uptake in rat brain at 3 mg/kg, sc after 30 mins. The settings on record: read-out: Drug uptake.
The test system of series [3] is Brain. As to the kind of experiment: Unbound concentration in rat brain at 3 mg/kg, sc after 30 mins. Particulars: in vivo, 0.5 h.
Series [4] in a line: Drug uptake in rat cerebrospinal fluid at 3 mg/kg, sc after 30 mins. Particulars: read-out: Drug uptake.
Series [5] in a line: Drug uptake in rat plasma at 3 mg/kg, sc after 30 mins.
The subject of series [6] is Plasma. The series is described as follows: Unbound concentration in mouse plasma at […], sc after 30 mins. The settings on record: in vivo, 0.5 h.
Series [7] concerns Plasma. As to the kind of experiment: Unbound concentration in rat plasma at 3 mg/kg, sc after 30 mins. The settings on record: in vivo, 0.5 h.
Series [8] is described as follows: Ratio of unbound concentration in mouse brain to plasma at […], sc after 30 mins. Particulars: brain and plasma, read-out: K(p,uu,brain).
Series [9] concerns Brain. As to the kind of experiment: Unbound concentration in mouse brain at […], sc after 30 mins. The settings on record: in vivo, 0.5 h.
A short description of series [10]: Drug uptake in mouse brain at […], sc after 30 mins. The settings on record: read-out: Drug uptake.
The nature of series [11]: Drug uptake in mouse plasma at […], sc after 30 mins.

SMILES strings stand for the structures.

`Cn1ncc(-c2nn(C)c3ncnc(N4CCC4)c23)c1-c1ccc(C(F)(F)F)cc1`: the Kp uu at 0.5 h stood at 0.37 in series [1] and 0.27 in series [8]. The concentration at 0.5 h in series [2] amounted to 950 nM; in [4], 79.9 nM; in [5], 776 nM; in series [10], 452 nM; in series [11], 798 nM. For the same compound, the “Drug uptake(free)” value worked out at 90.2 nM in the series with Brain [3] and 43 nM in the series on Brain [9]. Also, the figures for the “Cp(f)” value with Plasma [6] and in the series with Plasma [7] were 160 nM and 248 nM, respectively.
